From patent US20130029970A1 (priority 2009, published 2013)

How the values were obtained:
human CB1 (hCB1) = target: T1, human CB1 (hCB1) (Homo sapiens, UniProt P21554); experiment: 35S GTPγS binding assay, hCB1 agonist; format: biochemical; details: GTPγS agonist, HEK-293 membranes; read-out: hCB1 EC50 (GTPyS ag)
T1 construct: (cDNA clone) CNR01L000

human CB1 receptors = target: T2, human CB1 receptors (Homo sapiens, UniProt P21554); experiment: cAMP assay in HEK-293 cells, hCB1 agonist; format: cell-based; details: inhibition of forskolin-stimulated cAMP, HEK-293 cells
T2 construct: (cDNA clone) CNR01L000
In short: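 Agonist EC50 taken as concentration giving half inhibition of forskolin-driven cAMP, normalized to forskolin maximum, from sigmoidal curves. Whole HEK-293 cells stably expressing hCB1, in HEPES/BSA-containing HBSS, exposed 30 min at 37° C. to compound with forskolin (90 uM in 3× dilution); cAMP read after lysis.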

[1] = target: T3, recombinant human cannabinoid receptor CB1 (Homo sapiens, UniProt P21554); experiment: Cannabinoid receptor radioligand binding assay, [3H]-CP 55,940 displacement, hCB1
T3 construct: (cDNA clone) CNR01L000
In short: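 Displacement of 0.5 nM [3H]-CP 55,940 (1 μM unlabeled CP 55,940 for nonspecific) measured by filtration and scintillation counting. Binding ran 90 min at room temperature in pH 7.5 Tris buffer with 0.1% fatty-acid-free BSA, using recombinant hCB1 HEK-293 membranes at 2-10 μg protein.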

T2 sequence (P21554 whole entry): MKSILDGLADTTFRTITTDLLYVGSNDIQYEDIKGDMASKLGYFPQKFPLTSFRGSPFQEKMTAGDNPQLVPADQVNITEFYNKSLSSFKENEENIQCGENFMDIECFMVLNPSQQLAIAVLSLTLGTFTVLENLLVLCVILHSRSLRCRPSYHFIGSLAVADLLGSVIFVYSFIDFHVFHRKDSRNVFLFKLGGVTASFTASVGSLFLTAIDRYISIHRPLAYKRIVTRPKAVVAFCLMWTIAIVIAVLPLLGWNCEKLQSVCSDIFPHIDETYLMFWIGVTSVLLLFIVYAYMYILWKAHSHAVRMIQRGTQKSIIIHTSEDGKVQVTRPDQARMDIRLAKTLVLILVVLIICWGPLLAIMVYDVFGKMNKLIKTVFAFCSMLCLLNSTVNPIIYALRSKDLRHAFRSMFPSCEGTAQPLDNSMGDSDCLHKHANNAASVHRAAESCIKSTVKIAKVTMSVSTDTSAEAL
T3 sequence (P21554 whole entry): as above
T1 sequence (P21554 whole entry): as above

Compound: COc1ccc(C(=O)c2cc3cc(C)n(CCN4CCCOCC4)c3s2)cn1 [Compound 158, (6-(2-(1,4-oxazepan-4-yl)ethyl)-5-methyl-6H-thieno[2,3-b]pyrrol-2-yl)(6-methoxypyridin-3-yl)methanone]
- EC50 (human CB1 (hCB1)): > 10 µM
- hCB1 EC50 (cAMP ag, nM) (human CB1 receptors): NS (NS means “Not Significant,” which means less than 30% agonist activity when compared to the positive control.)
- IC50 [1]: 0.1 to 1 µM

Compound: COc1ccc(C(=O)c2cc3cc(C)n(CCNC4CCOC4)c3s2)cn1 (stereo not drawn) [Compound 164, (6-methoxypyridin-3-yl)(5-methyl-6-(2-((tetrahydrofuran-3-yl)amino)ethyl)-6H-thieno[2,3-b]pyrrol-2-yl)methanone]
- EC50 (human CB1 (hCB1)): > 10 µM
- hCB1 EC50 (cAMP ag, nM) (human CB1 receptors): NS (NS means “Not Significant,” which means less than 30% agonist activity when compared to the positive control.)
- IC50 [1]: 1 to 10 µM

Compound: COc1ccc(C(=O)c2cc3cc(C)n(CCN4CCCC4)c3s2)cn1 [Compound 167, (6-methoxypyridin-3-yl)(5-methyl-6-(2-(pyrrolidin-1-yl)ethyl)-6H-thieno[2,3-b]pyrrol-2-yl)methanone]
- EC50 (human CB1 (hCB1)): > 10 µM
- hCB1 EC50 (cAMP ag, nM) (human CB1 receptors): NS (NS means “Not Significant,” which means less than 30% agonist activity when compared to the positive control.)
- IC50 [1]: < 0.1 µM
